Experimental data: US4319028A, “7-(2-(Substituted benzoyl)amino)acetamido)cephalosporins” (Eli Lilly and Company, priority 1976, dated 1982)
Values after ≈ are worked out from the molar mass of the structure shown. Like-named read-outs stand apart in the source and are kept apart here.

Columns and labels:
[1] = test system: Shigella sp.; test: Antibiotic activity (MIC), Gradient Plate in vitro method, Shigella sp.; type: cell-based; conditions: read-out: Minimum Inhibitory Concentration
From the text: (§1) The antibiotic activity of the cephalosporin compounds of the present invention is illustrated by the data presented in Table I for representative compounds. The values in the table are the minimum inhibitory concentrations (MIC) for the test compounds against the indicated microorganisms. The MIC values were obtained in the Gradient Plate in vitro method for determining antibiotic activity.

[2] = test system: Escherichia coli; test: Antibiotic activity (MIC), Gradient Plate in vitro method, Escherichia coli; type: cell-based; conditions: read-out: Minimum Inhibitory Concentration
From the text: (§2) The values in the table are the minimum inhibitory concentrations (MIC) for the test compounds against the indicated microorganisms. The MIC values were obtained in the Gradient Plate in vitro method for determining antibiotic activity.

[3] = test system: Klebsiella pneumoniae; test: Antibiotic activity (MIC), Gradient Plate in vitro method, Klebsiella pneumoniae; type: cell-based; conditions: read-out: Minimum Inhibitory Concentration
From the text: as §2

[4] = test system: Aerobacter Aerogenes; test: Antibiotic activity (MIC), Gradient Plate in vitro method, Aerobacter Aerogenes; type: cell-based; conditions: Klebsiella aerogenes, read-out: Minimum Inhibitory Concentration
From the text: as §2

[5] = test system: Salmonella heidelberg; test: Antibiotic activity (MIC), Gradient Plate in vitro method, Salmonella heidelberg; type: cell-based; conditions: Salmonella enterica, read-out: Minimum Inhibitory Concentration
From the text: as §2

[6] = test system: Pseudomonas Aeruginosa; test: Antibiotic activity (MIC), Gradient Plate in vitro method, Pseudomonas Aeruginosa; type: cell-based; conditions: read-out: Minimum Inhibitory Concentration
From the text: as §2

[7] = test system: Serratia marcescens; test: Antibiotic activity (MIC), Gradient Plate in vitro method, Serratia marcescens; type: cell-based; conditions: read-out: Minimum Inhibitory Concentration
From the text: as §1

[8] = test system: V41 (penicillin resistant Staphylococcus); test: Antibiotic activity (MIC), Gradient Plate in vitro method, V41; type: cell-based; conditions: read-out: Minimum Inhibitory Concentration
From the text: as §1
(§3) ^1 Test organisms V41, V32, and V84 are penicillin resistant

[9] = test system: V32 (penicillin resistant Staphylococcus); test: Antibiotic activity (MIC), Gradient Plate in vitro method, V32; type: cell-based; conditions: read-out: Minimum Inhibitory Concentration
From the text: as §1, §3

[10] = test system: X466 (methicillin resistant Staphylococcus); test: Antibiotic activity (MIC), Gradient Plate in vitro method, X466; type: cell-based; conditions: read-out: Minimum Inhibitory Concentration
From the text: as §1, with “activity. […]” for “activity.”

[11] = test system: V84 (penicillin resistant Staphylococcus); test: Antibiotic activity (MIC), Gradient Plate in vitro method, V84; type: cell-based; conditions: read-out: Minimum Inhibitory Concentration
From the text: as §1, §3

[12] = Titration (pKa); type: physicochemical; conditions: 66% dmf-34% h2o, titration (66% DMF-34% H2O)
[13] = Water solubility (inferred from low yield); type: physicochemical; conditions: inferred from low yield of aqueous isolation
[14] = Gradient Plate in vitro, V41, penicillin resistant Staphylococcus
[15] = Gradient Plate in vitro, V84, penicillin resistant Staphylococcus
[16] = first pKa, read-out: pKa (first value)
[17] = second pKa, read-out: pKa (second value)
[18] = Gradient Plate in vitro, V32, penicillin resistant Staphylococcus

Compound | MIC [1] [µg/mL] | MIC [2] [µg/mL] | MIC [3] [µg/mL] | MIC [4] [µg/mL] | MIC [5] [µg/mL] | MIC [6] [µg/mL] | MIC [7] [µg/mL] | MIC [8, 14] [µg/mL] | MIC ([9]; Staphylococcus) [µg/mL] | MIC [10] [µg/mL] | MIC [11, 15] [µg/mL] | pKa [12, 16] | pKa [12, 17] | MIC [9, 18] [µg/mL] | MIC ([8]; Staphylococcus) [µg/mL] | MIC ([11]; Staphylococcus) [µg/mL] | water solubility [13] | pKa ([12]; third pKa, read-out: pKa (third value))
Cn1nnnc1SCC1=C(C(=O)O)N2C(=O)C(NC(=O)[C@H](NC(=O)c3ccccc3O)c3ccc(O)cc3)C2SC1 (stereo partly drawn) [Example 4, 7-[D-[2-(4-Hydroxyphenyl)-2-[(2-hydroxybenzoyl)amino]acetyl]amino]-3-[[(1-methyltetrazol-5-yl)thio]methyl]-3-cephem-4-carboxylic acid] | 33 (≈ 55.2 µM) | 60 (≈ 100 µM) | 29 (≈ 48.5 µM) | 49 (≈ 82 µM) | 32.5 (≈ 54.4 µM) | 104 (≈ 174 µM) | > 200 | 4.6 (≈ 7.7 µM) | 4 (≈ 6.69 µM) | 41 (≈ 68.6 µM) | 2.2 (≈ 3.68 µM) | 5.09 | 10 | – | – | – | – | –
NC(=O)OCC1=C(C(=O)O)N2C(=O)C(NC(=O)C(NC(=O)c3cccc(O)c3O)c3ccccc3)C2SC1 [Example 20, 7-[D-[2-Phenyl-2-[(2,3-dihydroxybenzoyl)amino]acetyl]-amino]-3-carbamoyloxymethyl-3-cephem-4-carboxylic acid] | 58 (≈ 107 µM) | 74 (≈ 136 µM) | 6.5 (≈ 12 µM) | 76 (≈ 140 µM) | 1 (≈ 1.84 µM) | 140 (≈ 258 µM) | > 200 | 7.9 (≈ 14.6 µM) | – | > 200 | 6.1 (≈ 11.2 µM) | 5.15 | 8.7 | 7.4 (≈ 13.6 µM) | – | – | – | –
CC(=O)OCC1=C(C(=O)O)N2C(=O)C(NC(=O)C(NC(=O)c3cccc(O)c3O)c3ccccc3)C2SC1 [Example 19, 7-[D-[2-Phenyl-2-[(2,3-dihydroxybenzoyl)amino]acetyl]-amino]-3-acetoxymethyl-3-cephem-4-carboxylic acid] | 50 (≈ 92.3 µM) | > 200 | 7.4 (≈ 13.7 µM) | > 200 | 1 (≈ 1.85 µM) | 56 (≈ 103 µM) | > 200 | 17 (≈ 31.4 µM) | – | > 200 | 14.7 (≈ 27.1 µM) | 5 | 8.72 | 16.2 (≈ 29.9 µM) | – | – | – | –
Cc1nnc(SCC2=C(C(=O)O)N3C(=O)C(NC(=O)[C@H](NC(=O)c4ccc(O)cc4)c4ccc(O)cc4)C3SC2)s1 (stereo partly drawn) [Example 12, 7-[D-[2-(4-Hydroxyphenyl)-2-[(4-hydroxybenzoyl)amino]acetyl]-amino]-3-[[(5-methyl-1,3,4-thiadiazol-2-yl)thio]methyl]-3-cephem-4-carboxylic acid] | 13.9 (≈ 22.6 µM) | 50 (≈ 81.5 µM) | 29.5 (≈ 48.1 µM) | 40 (≈ 65.2 µM) | 33 (≈ 53.8 µM) | > 200 | > 200 | – | 1 (≈ 1.63 µM) | 84 (≈ 137 µM) | – | – | – | – | 1 (≈ 1.63 µM) | 1 (≈ 1.63 µM) | quite water soluble | –
Cc1nnc(SCC2=C(C(=O)O)N3C(=O)C(NC(=O)[C@H](NC(=O)c4ccc(O)c(Cl)c4)c4ccc(O)cc4)C3SC2)s1 (stereo partly drawn) [Example 11, 7-[D-[2-(4-Hydroxyphenyl)-2-[(3-chloro-4-hydroxybenzoyl)-amino]acetyl]amino]-3-[[(5-methyl-1,3,4-thiadiazol-2-yl)-thio]methyl]-3-cephem-4-carboxylic acid] | 9.6 (≈ 14.8 µM) | 11.2 (≈ 17.3 µM) | 8.9 (≈ 13.7 µM) | 36.8 (≈ 56.8 µM) | 25 (≈ 38.6 µM) | 124 (≈ 191 µM) | 80 (≈ 123 µM) | – | – | 122 (≈ 188 µM) | – | 4.9 | 9.5 | 1.1 (≈ 1.7 µM) | 1 (≈ 1.54 µM) | 1 (≈ 1.54 µM) | – | –
Cn1c(SCC2=C(C(=O)O)N3C(=O)C(NC(=O)[C@H](NC(=O)c4cccc(O)c4O)c4ccc(O)cc4)C3SC2)nnc(O)c1=O (stereo partly drawn) [Example 9, 7-[D-[2-(4-Hydroxyphenyl)-2-[(2,3-dihydroxybenzoyl)-amino]acetyl]amino]-3-[[(4,5-dihydro-6-hydroxy-4-methyl-5-oxo-1,2,4-triazin-3-yl)thio]methyl]-3-cephem-4-carboxylic acid] | 8 (≈ 12.2 µM) | 22.5 (≈ 34.3 µM) | 3.9 (≈ 5.94 µM) | 11 (≈ 16.8 µM) | 1 (≈ 1.52 µM) | 124 (≈ 189 µM) | > 200 | 16.2 (≈ 24.7 µM) | – | > 200 | 11.6 (≈ 17.7 µM) | 4.99 | 8.89 | 14 (≈ 21.3 µM) | – | – | – | –
Cn1nnnc1SCC1=C(C(=O)O)N2C(=O)C(NC(=O)[C@H](NC(=O)c3ccc(O)cc3O)c3ccc(O)cc3)C2SC1 (stereo partly drawn) [Example 17, 7-[D-[2-(4-Hydroxyphenyl)-2-[(2,4-dihydroxybenzoyl)-amino]-acetyl]amino]-3-[[(1-methyltetrazol-5-yl)thio]-methyl]-3-cephem-4-carboxylic acid] | 9.2 (≈ 15 µM) | 18 (≈ 29.3 µM) | 15.5 (≈ 25.3 µM) | 36 (≈ 58.7 µM) | 14 (≈ 22.8 µM) | 92 (≈ 150 µM) | > 200 | – | – | 102 (≈ 166 µM) | 2.4 (≈ 3.91 µM) | 4.97 | 9.58 | 3.5 (≈ 5.7 µM) | 4 (≈ 6.52 µM) | – | – | 12.1
O=C(O)C1=C(Cl)CSC2C(NC(=O)[C@H](NC(=O)c3cccc(O)c3O)c3ccccc3)C(=O)N12 (stereo partly drawn) [Example 18, 7-[D-[2-Phenyl-2-[(2,3-dihydroxybenzoyl)amino]acetyl]-amino]-3-chloro-3-cephem-4-carboxylic acid] | 18 (≈ 35.7 µM) | 82 (≈ 163 µM) | 7 (≈ 13.9 µM) | 50 (≈ 99.2 µM) | 1 (≈ 1.98 µM) | > 200 | > 200 | 24 (≈ 47.6 µM) | – | > 200 | 14.2 (≈ 28.2 µM) | 4.55 | 3.84 | 21.5 (≈ 42.7 µM) | – | – | – | –
